From patent publication US8512941B2, “Biological material and methods and solutions for preservation thereof” (Core Dynamics Limited, priority 2004, dated 2013)

How the values were obtained:
Red blood cells (RBC) = assay: RBC survival (cell count) after freezing/thawing or lyophilizing/rehydrating at 2.5 ml; type: cell-based; settings: thawed, not lyophilized
Description: Red blood cells (RBC) were separated from whole blood received from the Israeli Blood Bank. The blood was centrifuged for 10 minutes at 1500 g and the plasma was discarded. […] Afterwards the supernatant was discarded, and an equal volume of cryopreservation solution selected from the solutions in Table I was added to the packed RBC. Different volumes (2.5-50 ml) of the RBC suspension were transferred to a 16-25 mm diameter glass test tube ([…], Israel). The experiment of freezing 200 ml of RBC suspension was done in a 2000 ml freezing bag (Baxter-Fenwal, USA). Samples were then either frozen and thawed in a water bath at 37° C. or lyophilized and rehydrated with double distilled water (DDW) at 37° C. Glass test tubes containing RBC were frozen in a modified MTG freezing apparatus, as described in WO 03/020874 (manufactured by IMT, Israel). The thermal gradient in the cooling unit was set to 5.5° C./mm or 10.5° C./mm or 15.5° C./mm (as detailed below) with final temperatures of -50° C., -100° C. or -150° C. […] During freezing the test tubes that contained only 2.5 ml samples were rotated at a rate of 56 rpm. Subsequent to freezing, biological material was taken from each test tube to test for cell viability. Lyophilization was performed in a commercial lyophilizer (Labconco, USA) with a condenser temperature of -82° C. for 72 hours. The biological material was is rehydrated by adding DDW to reach the sample's original volume. Frozen (but not lyophilized) material was thawed by immersion in a water bath at 37° C. for until it melted. Melting was observed visually. Cells were counted using the […] 60 cell counter (ABX, France), in accordance with the manufacturer's manual. This device provides a complete cell count (CBC) that includes parameters such as: cell number, hematocrit, mean cell volume, hemoglobin, etc. […] In these experiments the cell suspension volume was 2.5 ml.

RBC = settings: introduction of trehalose into fresh RBC, not frozen or freeze-dried; Satpathy et al. 2004; cited from earlier work

## OC[C@H]1O[C@H](O[C@H]2O[C@H](CO)[C@@H](O)[C@H](O)[C@H]2O)[C@H](O)[C@@H](O)[C@@H]1O [Trehalose, reference compound]
Red blood cells (RBC); frozen at 1,000° C./min, percentage of total fresh cells counted
  RBC survival, 1A Thawed: 89.04%
Red blood cells (RBC); frozen at 2,000° C./min
  RBC survival, 2A Thawed: 93.24%
RBC
  hemolysis: causes significant hemolysis
